# Laboratory results: US9198925B2, “Pharmaceutical formulations containing an SGLT2 inhibitor” (AstraZeneca AB, priority 2007, dated 2015)
# Where two headings read alike, the source gives them in different places.
# Experiments:
# [1] = system: healthy subjects; settings: single ascending dose study, cited from earlier work
# [2] = system: treatment naive type II diabetes mellitus patients; assay: 12-week study of weight loss and glucosuria in patients with type II diabetes; assay type: in vivo, human; settings: for Mean reduction in BMI: absolute change
# Experimental: Treatment naive type II diabetes mellitus patients, n=389, with inadequate blood glycemic control and low mean glucosuria at baseline were given once-daily oral treatments with dapagliflozin propylene glycol hydrate (2.5, 5, 10, 20, or 50 mgs), metformin XR® (750 mg titrated to 1500 mgs), or placebo over 12-weeks.
# [3] = system: diet-induced obese (DIO) rats; settings: oral 1, 5 or 10 mg/kg, urine volume x glucose concentration
# Experimental: Obesity was induced in male Sprague-Dawley rats (mean baseline weight=220 g) via ad libitum access to 2 diets: normal diet (Harlan Teklad rat chow; 3.5 kcal/gm, 5% vegetable fat) and high-sucrose/high-fat diet (Research Diets D12327; 4.6 kcal/gm, 40% sucrose and 40% vegetable fat).
# Urine volume and glucose concentration were used to determine total urine glucose loss over 24 hours post dose.
# Total glucose lost was calculated as volume of urine x glucose concentration.
# [4] = system: diet-induced obese (DIO) rats
# Text: Obesity was induced in male Sprague-Dawley rats (mean baseline weight=220 g) via ad libitum access to 2 diets: normal diet (Harlan Teklad rat chow; 3.5 kcal/gm, 5% vegetable fat) and high-sucrose/high-fat diet (Research Diets D12327; 4.6 kcal/gm, 40% sucrose and 40% vegetable fat). Rats under these conditions typically consume approximately 30 g/day of the high-sucrose/high-fat chow and 2 g/day of the normal Harlan Teklad rat chow.
# DIO rats were sorted into treatment groups based on body weight, total kilocalories consumed, and body composition (via echo MRI). […] Body weight and the weight of both diets were determined daily. Respiratory quotient data were obtained on days 2 and 15 of the study, echo MRI was obtained on day 22, and blood was collected for a fasting clinical chemistry tests on day 27.
# Percent weight changes were calculated as daily weight—day 0 weight×100.
# [5] = system: healthy subjects; settings: single ascending dose study
# Experimental: (§1) Patients with type 2 diabetes were treated with placebo, 5 mg dapagliflozin propylene glycol hydrate, 25 mg dapagliflozin propylene glycol hydrate, or 100 mg dapagliflozin propylene glycol hydrate.
# [6] = system: subjects with type 2 diabetes; settings: 14-day multiple dose
# Experimental: as §1
# [7] = metformin XR 750 mg titrated to 1500 mgs, 12 weeks, n = 56
# [8] = 2.5 mgs once daily, 12 weeks, n = 59
# [9] = 5 mgs once daily, 12 weeks, n = 58
# [10] = 10 mgs once daily, 12 weeks, n = 47
# [11] = 20 mgs once daily, 12 weeks, n = 59
# [12] = 50 mgs once daily, 12 weeks, n = 56
smiles,measurement,setting,value
"CCOC(=O)OC[C@H]1O[C@@H](Oc2ccccc2Cc2ccc(OC)cc2)[C@H](O)[C@@H](O)[C@@H]1O [GSK 869,682]",amount of glucose excretion/day,[1]; 50 mg,approximately 5 g
same,amount of glucose excretion/day,[1]; 100 mg,~6 g
same,amount of glucose excretion/day,[1]; 200 mg,~12 g
same,amount of glucose excretion/day,[1]; 500 mg,~16 g
"CN(C)C(=N)N=C(N)N [Metformin, metformin, reference compound]",Mean reduction in BMI,[2]; [7],−0.5
same,Mean reduction in weight (%),[2]; [7],−1.7%
same,mean glucosuria at week 12,"[2]; type II diabetes patients, metformin XR 750 mg titrated to 1500 mgs, week 12",5.6 grams/day
CCOc1ccc(Cc2cc([C@@H]3O[C@H](CO)[C@@H](O)[C@H](O)[C@H]3O)ccc2Cl)cc1.C[C@H](O)CO.O [dapagliflozin propylene glycol hydrate],Mean reduction in weight (%),[2]; [8],−2.7%
same,Mean reduction in weight (%),[2]; [9],−2.5%
same,Mean reduction in weight (%),[2]; [10],−2.7%
same,Mean reduction in weight (%),[2]; [11],−3.4%
same,Mean reduction in weight (%),[2]; [12],−3.4%
same,Mean reduction in BMI,[2]; [8],−0.9
same,Mean reduction in BMI,[2]; [9],−0.8
same,Mean reduction in BMI,[2]; [10],−0.8
same,Mean reduction in BMI,[2]; [11],−1.0
same,Mean reduction in BMI,[2]; [12],−1.1
same,"proportion of patients who achieved a 5% weight reduction, versus placebo","[2]; each dose group (2.5, 5, 10, 20, 50 mgs), 12 weeks",higher proportion
same,total amount of glucose lost in urine over 24 hours post dose,[3],significantly increased with increasing doses
same,body weight loss versus vehicle,"[4]; oral 0.5, 1 or 5 mpk, administered daily over 25 days, p<0.05 versus vehicle",significant weight loss
same,body weight loss when compound-induced overeating was prevented (pair fed to vehicle group),"[4]; pair fed subgroup, compared with ad libitum treated rats",the weight loss was greater
same,amount of glucose excretion/day,[5]; 5 mg,approximately 30 g
same,amount of glucose excretion/day,[5]; 20 mg,~55 g
same,amount of glucose excretion/day,[5]; 50 mg,~60 g
same,amount of glucose excretion/day,[5]; 100 mg,~70 g
same,24-hour urine glucose excretion compared to placebo,[6]; 5 mg,significantly higher
same,24-hour urine glucose excretion compared to placebo,[6]; 25 mg,significantly higher
same,24-hour urine glucose excretion compared to placebo,[6]; 100 mg,significantly higher
